The values below come from patent US20240390340A1 (INCYTE CORPORATION, priority 2023, published 2024).

One series concerns KRAS. The experiment in a line: KRAS inhibition, assay not specified (at least one assay described herein). To be noted: Peak 1 versus Peak 2 of prep. LCMS; assay not stated.
A further series has as its target KRAS G12D (Homo sapiens, UniProt P01116, G12D). The experiment in a line: GDP-GTP exchange assay (bodipy-GDP/GppNHp, SOS1), KRAS G12D. Type of series: biochemical. Conditions: Table H, column G12D; for compounds isolated as several atropisomers/diastereoisomers the value for the most potent isomer is quoted; read-out: KRAS G12D exchange assay IC50.
For a further series, the target named is KRAS G12V (Homo sapiens, UniProt P01116, G12V). In words: GDP-GTP exchange assay (bodipy-GDP/GppNHp, SOS1), KRAS G12V. Conditions: Table H, column G12V; for compounds isolated as several atropisomers/diastereoisomers the value for the most potent isomer is quoted; read-out: KRAS G12V exchange assay IC50. In kind it is biochemical.
A further series relates to Caco-2 cells. In words: Caco2 assay (Papp A-B). Type of series: in vitro ADME. Conditions: test compound 50 μM, 120 min, 37° C. Summed up:
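Caco-2 monolayers grown 22–25 days on Transwells (TEER 300 Ω·cm^2) were dosed apically with 50 μM compound in HBSS; basolateral receiver held HBSS with 4% BSA. Incubation 120 min at 37° C, 5% CO2; donor and receiver samples quantified by LCMS and Papp A-B calculated from receiver-side cumulative flux slope.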

Structures are written as SMILES.

Chain of KRAS G12D (P01116 1-188 isoform P01116-2 G12D): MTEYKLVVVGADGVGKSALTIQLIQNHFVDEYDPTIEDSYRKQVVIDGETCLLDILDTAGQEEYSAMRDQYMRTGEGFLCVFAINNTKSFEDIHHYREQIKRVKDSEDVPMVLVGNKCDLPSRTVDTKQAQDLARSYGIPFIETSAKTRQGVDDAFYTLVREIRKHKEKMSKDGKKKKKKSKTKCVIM
Chain of KRAS G12V (P01116 1-188 isoform P01116-2 G12V): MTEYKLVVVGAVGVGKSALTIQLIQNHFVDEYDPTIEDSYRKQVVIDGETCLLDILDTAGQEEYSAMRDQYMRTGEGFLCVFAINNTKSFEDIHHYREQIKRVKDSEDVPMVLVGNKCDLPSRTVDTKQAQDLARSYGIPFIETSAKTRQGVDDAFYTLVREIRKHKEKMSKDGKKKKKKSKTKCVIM

As for `C[C@@H](O)c1nc2c(F)c(-c3cccc(Cl)c3Cl)c(CCC#N)cc2c2c1cc([C@H]1C[C@H](Oc3cc(C4CC4)on3)CN1C(=O)C1CC1)n2[C@H]1[C@H]2CN[C@@H]1C2` (single isomer, unassigned) [Example 77, Diastereomer 1 (Peak 1)], in the series on KRAS, the “potency of the separated diastereoisomer (atropisomer) in words” value was “potent”.

Take `COc1cc(O[C@H]2C[C@H](c3cc4c([C@@H](C)O)nc5c(F)c(-c6cccc(Cl)c6Cl)c(CCC#N)cc5c4n3[C@H]3[C@H]4CN[C@@H]3C4)N(C(=O)C3CC3)[C@@H]2C)c(F)cn1` (single isomer, unassigned) [Example 51, Diastereomer 1 (Peak 1)]: in the series with KRAS, the “potency of the separated diastereoisomer (atropisomer) in words” value was “potent”.

For the compound `COc1cc(O[C@H]2C[C@H](c3cc4c(C(C)O)nc5c(F)c(-c6cccc(Cl)c6Cl)c(CCC#N)cc5c4n3[C@H]3[C@H]4CN[C@@H]3C4)N(C(=O)C3CC3)C2)ccn1` (stereo partly drawn) [Example 2, 3-(1-((1R,4R,5S)-2-Azabicyclo[2.1.1]hexan-5-yl)-2-((2R,4S)-1-(cyclopropanecarbonyl)-4-((2-methoxypyridin-4-yl)oxy)pyrrolidin-2-yl)-7-(2,3-dichlorophenyl)-6-fluoro-4-(1-hydroxyethyl)-1H-pyrrolo[3,2-c]quinolin-8-yl)propanenitrile], the IC50 at KRAS G12D and at KRAS G12V was at most 100 nM each time. For the same compound, in the series with Caco-2 cells, the Caco-2 result is “+++ (a Caco-2 value of >1)”.

Consider `Cc1nc2c(F)c(-c3cccc(Cl)c3Cl)c(CCC#N)cc2c2c1cc([C@H]1C[C@H](OCc3cc(C(F)(F)F)sn3)CN1C(=O)C1CC1)n2[C@H]1[C@H]2CN[C@@H]1C2` [Example 11], for which the 50% inhibitory concentration (IC50) on KRAS G12D and on KRAS G12V was at most 100 nM in each case. In the series with Caco-2 cells, the Caco-2 entry is reported as “+ (a Caco-2 value of ≤0.5)”.

As to `Cc1csnc1CO[C@H]1C[C@H](c2cc3c(-c4ccc(C(C)(C)O)nc4)nc4c(F)c(-c5cccc(Cl)c5Cl)c(CCC#N)cc4c3n2[C@H]2[C@H]3CN[C@@H]2C3)N(C(=O)C2CC2)C1` [Example 25], the 50% inhibitory concentration (IC50) on KRAS G12D and at KRAS G12V was at most 100 nM throughout. Moreover, the Caco-2 result in the series with Caco-2 cells is “+ (a Caco-2 value of ≤0.5)”.

Take `C[C@@H](O)c1nc2c(F)c(-c3cccc(Cl)c3Cl)c(CCC#N)cc2c2c1cc([C@H]1C[C@H](Oc3nccs3)CN1C(=O)C1CC1)n2[C@H]1[C@H]2CN[C@@H]1C2` [Example 54, 3-(1-((1R,4R,5S)-2-Azabicyclo[2.1.1]hexan-5-yl)-2-((2R,4S)-1-(cyclopropanecarbonyl)-4-(thiazol-2-yloxy)pyrrolidin-2-yl)-7-(2,3-dichlorophenyl)-6-fluoro-4-((R)-1-hydroxyethyl)-1H-pyrrolo[3,2-c]quinolin-8-yl)propanenitrile]: the IC50 on KRAS G12D and on KRAS G12V was at most 100 nM in each case. In the series with Caco-2 cells, the Caco-2 result is “+ (a Caco-2 value of ≤0.5)”.

Regarding `COc1cc(O[C@H]2C[C@H](c3cc4c([C@@H](C)O)nc5c(F)c(-c6cccc(Cl)c6Cl)c(CCC#N)cc5c4n3[C@H]3[C@H]4CN[C@@H]3C4)N(C(=O)C3CC3)C2)ncn1` [Example 57, 3-(1-((1R,4R,5S)-2-Azabicyclo[2.1.1]hexan-5-yl)-2-((2R,4S)-1-(cyclopropanecarbonyl)-4-((6-methoxypyrimidin-4-yl)oxy)pyrrolidin-2-yl)-7-(2,3-dichlorophenyl)-6-fluoro-4-((R)-1-hydroxyethyl)-1H-pyrrolo[3,2-c]quinolin-8-yl)propanenitrile], the concentration for half-maximal inhibition (IC50) on KRAS G12D and on KRAS G12V was at most 100 nM each time. For the same compound, the Caco-2 result in the series with Caco-2 cells is given as “++ (a Caco-2 value of >0.5 but ≤1)”.

As to `COc1ccc(O[C@H]2C[C@H](c3cc4c([C@@H](C)O)nc5c(F)c(-c6cccc(Cl)c6Cl)c(CCC#N)cc5c4n3[C@H]3[C@H]4CN[C@@H]3C4)N(C(=O)C3CC3)C2)cn1` [Example 76, 3-(1-((1R,4R,5S)-2-Azabicyclo[2.1.1]hexan-5-yl)-2-((2R,4S)-1-(cyclopropanecarbonyl)-4-((6-methoxypyridin-3-yl)oxy)pyrrolidin-2-yl)-7-(2,3-dichlorophenyl)-6-fluoro-4-((R)-1-hydroxyethyl)-1H-pyrrolo[3,2-c]quinolin-8-yl)propanenitrile], the 50% inhibitory concentration (IC50) on KRAS G12D and on KRAS G12V was at most 100 nM in each case. Also, the Caco-2 result in the series on Caco-2 cells was “++ (a Caco-2 value of >0.5 but ≤1)”.

For `Cc1nc2c(F)c(-c3cccc(Cl)c3Cl)c(CCC#N)cc2c2c1cc([C@H]1C[C@H](Oc3ccc(N(C)C)nc3)CN1C(=O)C1CC1)n2[C@H]1[C@H]2CN[C@@H]1C2` [Example 38, 3-(1-((1R,4R,5S)-2-Azabicyclo[2.1.1]hexan-5-yl)-2-((2R,4S)-1-(cyclopropanecarbonyl)-4-((6-(dimethylamino)pyridin-3-yl)oxy)pyrrolidin-2-yl)-7-(2,3-dichlorophenyl)-6-fluoro-4-methyl-1H-pyrrolo[3,2-c]quinolin-8-yl)propanenitrile], the IC50 on KRAS G12D and at KRAS G12V was at most 100 nM throughout. For the same compound, in the series on Caco-2 cells, the Caco-2 entry is “++ (a Caco-2 value of >0.5 but ≤1)”.

In the case of `Cc1nc2c(F)c(-c3cccc(Cl)c3Cl)c(CCC#N)cc2c2c1cc([C@H]1C[C@H](Oc3ccc(C#N)cn3)CN1C(=O)C1CC1)n2[C@H]1[C@H]2CN[C@@H]1C2` [Example 60, 6-(((3S,5R)-5-(1-((1R,4R,5S)-2-Azabicyclo[2.1.1]hexan-5-yl)-8-(2-cyanoethyl)-7-(2,3-dichlorophenyl)-6-fluoro-4-methyl-1H-pyrrolo[3,2-c]quinolin-2-yl)-1-(cyclopropanecarbonyl)pyrrolidin-3-yl)oxy)nicotinonitrile], the IC50 on KRAS G12D and at KRAS G12V was at most 100 nM in each case. The Caco-2 result in the series with Caco-2 cells was “+ (a Caco-2 value of ≤0.5)”.

Take `Cc1nc2c(F)c(-c3cccc(Cl)c3Cl)c(CCC#N)cc2c2c1cc([C@H]1C[C@H](OC3(C)CCC3)CN1C(=O)C1CC1)n2[C@H]1[C@H]2CN[C@@H]1C2` [Example 78, 3-(1-((1R,4R,5S)-2-Azabicyclo[2.1.1]hexan-5-yl)-2-((2R,4S)-1-(cyclopropanecarbonyl)-4-(1-methylcyclobutoxy)pyrrolidin-2-yl)-7-(2,3-dichlorophenyl)-6-fluoro-4-methyl-1H-pyrrolo[3,2-c]quinolin-8-yl)propanenitrile]: the IC50 on KRAS G12D and at KRAS G12V was at most 100 nM each time. The Caco-2 result with Caco-2 cells is given as “+++ (a Caco-2 value of >1)”.

In the case of `Cc1nc2c(F)c(-c3cccc(Cl)c3Cl)c(CCC#N)cc2c2c1cc([C@H]1C[C@H](Oc3cnn(C)c3C#N)CN1C(=O)C1CC1)n2[C@H]1[C@H]2CN[C@@H]1C2` [Example 46, 4-(((3S,5R)-5-(1-((1R,4R,5S)-2-Azabicyclo[2.1.1]hexan-5-yl)-8-(2-cyanoethyl)-7-(2,3-dichlorophenyl)-6-fluoro-4-methyl-1H-pyrrolo[3,2-c]quinolin-2-yl)-1-(cyclopropanecarbonyl)pyrrolidin-3-yl)oxy)-1-methyl-1H-pyrazole-5-carbonitrile], the IC50 on KRAS G12D and on KRAS G12V was at most 100 nM in each case. Further, the Caco-2 entry with Caco-2 cells was “+ (a Caco-2 value of ≤0.5)”.

For the compound `Cc1nc2c(F)c(-c3cccc(Cl)c3Cl)c(CCC#N)cc2c2c1cc([C@H]1C[C@H](OC3CCC(C#N)C3)CN1C(=O)C1CC1)n2[C@H]1[C@H]2CN[C@@H]1C2` (some centres unmarked) [Example 24], the IC50 at KRAS G12D and at KRAS G12V was at most 100 nM throughout. Further, the Caco-2 result in the series on Caco-2 cells was “+ (a Caco-2 value of ≤0.5)”.

Take `Cc1cc(CO[C@H]2C[C@H](c3cc4c(C)nc5c(F)c(-c6cccc(Cl)c6Cl)c(CCC#N)cc5c4n3[C@H]3[C@H]4CN[C@@H]3C4)N(C(=O)C3CC3)C2)ns1` [Example 15]: the IC50 at KRAS G12D and at KRAS G12V was at most 100 nM each time. Besides, in the series with Caco-2 cells, the Caco-2 result is “+++ (a Caco-2 value of >1)”.

With `Cc1cc(F)cc(O[C@H]2C[C@H](c3cc4c([C@@H](C)O)nc5c(F)c(-c6cccc(Cl)c6Cl)c(CCC#N)cc5c4n3[C@H]3[C@H]4CN[C@@H]3C4)N(C(=O)C3CC3)C2)n1` [Example 62, 3-(1-((1R,4R,5S)-2-Azabicyclo[2.1.1]hexan-5-yl)-2-((2R,4S)-1-(cyclopropanecarbonyl)-4-((4-fluoro-6-methylpyridin-2-yl)oxy)pyrrolidin-2-yl)-7-(2,3-dichlorophenyl)-6-fluoro-4-((R)-1-hydroxyethyl)-1H-pyrrolo[3,2-c]quinolin-8-yl)propanenitrile], the 50% inhibitory concentration (IC50) on KRAS G12D and on KRAS G12V was at most 100 nM in each case. The Caco-2 result in the series on Caco-2 cells is reported as “++ (a Caco-2 value of >0.5 but ≤1)”.

Consider `Cc1nc2c(F)c(-c3cccc(Cl)c3Cl)c(CCC#N)cc2c2c1cc([C@H]1C[C@H](OCc3noc4ccccc34)CN1C(=O)C1CC1)n2[C@H]1[C@H]2CN[C@@H]1C2` [Example 6], for which the IC50 at KRAS G12D and on KRAS G12V was at most 100 nM each time. Further, in the series on Caco-2 cells, the Caco-2 result is on record as “+ (a Caco-2 value of ≤0.5)”.

Regarding `Cc1nc2c(F)c(-c3cccc(Cl)c3Cl)c(CCC#N)cc2c2c1cc([C@H]1C[C@H](OCc3nccs3)CN1C(=O)C1CC1)n2[C@H]1[C@H]2CN[C@@H]1C2` [Example 9], the half-maximal inhibitory concentration (IC50) at KRAS G12D and on KRAS G12V was at most 100 nM in each case. Moreover, the Caco-2 entry in the series on Caco-2 cells is reported as “+ (a Caco-2 value of ≤0.5)”.

As for `Cc1nc2c(F)c(-c3cccc(Cl)c3Cl)c(CCC#N)cc2c2c1cc([C@H]1C[C@H](Oc3ncccc3F)CN1C(=O)C1CC1)n2[C@H]1[C@H]2CN[C@@H]1C2` [Example 58, 3-(1-((1R,4R,5S)-2-Azabicyclo[2.1.1]hexan-5-yl)-2-((2R,4S)-1-(cyclopropanecarbonyl)-4-((3-fluoropyridin-2-yl)oxy)pyrrolidin-2-yl)-7-(2,3-dichlorophenyl)-6-fluoro-4-methyl-1H-pyrrolo[3,2-c]quinolin-8-yl)propanenitrile], the 50% inhibitory concentration (IC50) on KRAS G12D and at KRAS G12V was at most 100 nM each time. For the same compound, the Caco-2 entry with Caco-2 cells was “+++ (a Caco-2 value of >1)”.
